The test system of data set [1] is E. coli (ATCC 25922). The data set can be described thus: MIC determination, sensitization fold and FIC index on E. coli. As to conditions: for MIC: Escherichia coli; for MIC of AB with MD-124: MD-124 concentration 5 μg/ml; for Sensitization: compound up to 25 μM. The format is cell-based. The procedure:
(§1) Bacteria culture and MICs determination: Gram-negative bacteria were cultured in Mueller Hinton II cation-adjusted broth. Gram-positive bacteria were cultured in LB broth. Mycobacterium smegmatis was cultured in Middlebrook 7H9 Broth. MICs of antibiotics itself were determined by performing two-fold serial dilutions of antibiotics. MICs of antibiotics in the presence of bacterial sensitizers were determined by performing two-fold serial dilutions of antibiotics with or without a constant concentration of bacterial sensitizers. The MICs tests were performed on 96-well plates with a final volume of 200 μl Mueller Hinton II cation-adjusted broth in each well. Each well was inoculated with 5×10^5 CFU/ml bacteria and was incubated for 24 h at 37° C. with continuous shaking of 200 rpm. The bacterial density was then determined by OD600. Bacterial growth %=OD600 of antibiotic treatment group/OD600 of antibiotic non-treatment group. MICs was determined as the concentrations that inhibit more than 90% of bacteria growth.
(§2) Sensitization fold determination and FIC index calculations: Sensitization fold=MIC of antibiotic only/MIC of antibiotic with bacterial sensitizer. […] Since the MICs were determined by performing two-fold serial dilutions of antibiotic, so the sensitization fold can is the times of 2.
FIC index between compound a and b was calculated according to the formula below: […]
FIC≤0.5: Synergy; FIC between 0.5 and 1: Additive; FIC between 1 and […]: no interaction; FIC >4: antagonism.
(§3) Bacteria strains (as indicated in Table 5B) were cultured with rifampicin at various concentrations in the presence or absence of 10 μM of the indicated compound for 20 h at 37° C. The MIC, sensitization, cytotoxicity, and MIC on mycobacteria were tested according to methods described herein. […] The sensitization activities of compounds on MRSA were tested using rifampicin. The sensitization activities of compounds on E. coli were tested using rifampicin.

Data set [2] deals with NDM-1 expressing E. coli strain. Kind of data set: microbe, parasite or virus in culture. The format is cell-based. Conditions: for MIC: Escherichia coli, read-out: MIC on NDM-1 over-expression E. coli.
Data set [3] concerns A. baumannii (ATCC 17978). The data set can be described thus: MIC, sensitization fold and FIC index on A. baumannii. The format is cell-based. As to conditions: A. baumannii towards the antibiotic.
Data set [4] deals with mcr-1 over-expressing E. coli strains. Kind of data set: microbe, parasite or virus in culture. The format is cell-based. As to conditions: Escherichia coli.
Data set [5] can be described thus: Cytotoxicity in H9c2 cells (CCK-8). The format is cell-based. Conditions: rat, H9c2 cells; H9c2 cell line. The protocol: The cytotoxicity in H9c2 (ATCC®CRL-1446™) cells was also determined. The H9c2 cells were maintained in DMEM (Dulbecco's Modified Eagle's Medium) supplemented with 10% fetal bovine serum (MidSci; S01520HI) and 1% penicillin-streptomycin (Sigma-Aldrich; P4333) at 37° C. with 5% CO2. The H9c2 cells were seeded in 96-well plate one day before the experiment. Different concentrations of di-amidine compounds were added into the H9c2 cells. The cells were then incubated with the compounds for 24 hours at 37° C. with 5% CO2. The cell viability was tested by the CCK-8. Specifically, after 24 hour incubation, 10 μL CCK-8 was added to each well. After 3 hours incubation at 37° C., the absorbance at 450 nm was recorded by a plate reader.

In data set [6] the test system is B. subtilis. The data set can be described thus: MIC determination and sensitization fold on B. subtilis. Conditions: B. subtilis; for Sensitization fold: erythromycin; for MIC: Bacillus subtilis, 24 h, compound alone, read-out: MIC. The format is cell-based.
Data set [7] concerns MRSA (ATCC 33592). Kind of data set: MIC determination and sensitization fold on MRSA. The format is cell-based, methicillin-resistant Staphylococcus aureus. As to conditions: MRSA; rifampicin; compound at 4 μM. The procedure:
Bacteria strains: E. coli (ATCC 25922), A. baumannii (ATCC 17978), K. pneumoniae (43816), S. maltophilia (ATCC 31559), S. typhimurium (ATCC 14028), C. werkmanii (ATCC 51114), S. aureus (ATCC 12600) and methicillin-resistant Staphylococcus aureus (MRSA, ATCC 33592) strains were purchased from ATCC. NR698 was provided.
as §1, §2, §3

Data set [8] can be described thus: Cytotoxicity on mammalian cells (CCK-8), HEK293. The format is cell-based. As to conditions: human, HEK293 cells; HEK293 cell line; 24 h. The protocol:
(§4) Cytotoxicity test of bacterial sensitizers on mammalian cells. Cell viability was assessed by using Cell Counting Kit-8 (CCK-8, Dojindo, Japan). HEK293 or NIH3T3 cells were seeded in a 96-well plate one day before the experiment to reach 80% confluency. Cells were then incubated with various concentration of bacterial sensitizers at 37° C. with 5% CO2 for 24 h, then 10 μL of CCK-8 solution was added to each well, and the plate was incubated for an additional at 37° C. 2 h with 5% CO2. The optical density at 450 nm was recorded by plate reader; and the results were calculated as a percentage of viability compared with the untreated control.

The nature of data set [9]: Cytotoxicity on mammalian cells (CCK-8), NIH3T3. The format is cell-based. As to conditions: mouse, NIH3T3 cells, 3T3 cell line. The protocol:
as §4

The subject of data set [10] is HEK293 cells. Kind of data set: Cytotoxicity on mammalian cells (CCK-8), HEK293. The format is cell-based. Conditions: HEK293 cell line; 24 h. The protocol:
as §4

The mark [11] stands for this setting: NDM-1 expressing E. coli towards the antibiotic.
Setting [12] is: ATCC25922, antibiotic alone (Table 14), read-out: MIC on wild-type E.coli.
Where [13] appears, read: E. coli towards the antibiotic, MD-124 5 μg/ml.
Setting [14] is: ATCC25922, 24 h, E. coli (wild type), antibiotic alone, read-out: MIC of AB only.
The mark [15] stands for this setting: ATCC25922, 24 h, E. coli, compound alone, read-out: MIC.

In brackets after ≈: the same amount, converted by molar mass. Structures can show the parent of a compound that is named as a salt. Where two headings read alike, the source gives them in different places.

Take `CC1(C)S[C@@H]2[C@H](NC(=O)[C@H](N)c3ccccc3)C(=O)N2[C@H]1C(=O)O` [Ampicillin]: the “MIC on wild-type E.coli” value in [1] (antibiotic alone (Table 14)) was determined as 6 µg/mL. The “MIC of AB with 5 μg/ml MD-124” value in [2] (NDM-1 expressing E. coli) was 300 µg/mL. Moreover, in data set [2] (setting [11]), the “Sensitization fold with 5 μg/ml MD-124” value is given as greater than 1 fold. The “MFC of AB only” value in data set [2] (NDM-1 expressing E. coli, antibiotic alone) is greater than 300 µg/mL. Also, the “MIC on NDM-1 over-expression E. coli” value in [2] (antibiotic alone (Table 14)) was greater than 300 µg/mL.
With `CC(C)(O/N=C(\C(=O)N[C@@H]1C(=O)N2C(C(=O)[O-])=C(C[n+]3ccccc3)CS[C@H]12)c1csc(N)n1)C(=O)O` [Ceftazidime, reference compound], the MIC is less than 0.2 µg/mL in data set [1] (setting [12]) and greater than 6.25 µg/mL in [2] (antibiotic alone (Table 14)).
With `O=C(O)c1cn(C2CC2)c2cc(N3CCNCC3)c(F)cc2c1=O` [Ciprofloxacin, reference compound], the Sensitization fold in data set [1] (setting [13]) is on record as 4 fold. Further, the “MIC of AB with MD-124” value in [1] (E. coli) worked out at 0.0125 µg/mL. In addition, the MIC in data set [1] (setting [14]) came to 0.05 µg/mL. For the same molecule, the “Sensitization fold with 5 μg/ml MD-124” value in data set [3] is listed as 4 fold.
As for `CC[C@H]1OC(=O)[C@H](C)[C@@H](O[C@H]2C[C@@](C)(OC)[C@@H](O)[C@H](C)O2)[C@H](C)[C@@H](O[C@@H]2O[C@H](C)C[C@H](N(C)C)[C@H]2O)[C@](C)(OC)C[C@@H](C)C(=O)[C@H](C)[C@@H](O)[C@]1(C)O` [Clarithromycin], the MIC in data set [4] (mcr-1 over-expression E. coli strain (MIC of polymyxin B 30 μg/ml), read-out: MIC of AB only) was 25 µg/mL; in data set [4] (read-out: MIC of AB with 5 μg/ml MD-124, mcr-1 over-expression E. coli strain (MIC of polymyxin B 30 μg/ml)), no more than 0.2 µg/mL.
As to `Cc1cc(-c2nc3cc(C(=N)N)ccc3n2C)sc1-c1ccc(OCCCCOc2ccc(C(=N)N)cc2)cc1` [DB2583], the midpoint of cytotoxicity in [5], the CC50 at 24 h, lay at 12.5 µM. In addition, the Sensitization result in [1] (E. coli, rifampicin) is listed as “No effect up to 25 μM”. Further, the MIC in data set [1] (setting [15]) is 100 µM; in data set [6], 25 µM. Besides, the Sensitization fold in data set [6] (compound at 12 μM) was 16-fold at 12 μM.
Regarding `NC[C@H]1O[C@H](O[C@H]2[C@H](O)[C@@H](O[C@H]3O[C@H](CO)[C@@H](O)[C@H](N)[C@H]3O)[C@H](N)C[C@@H]2N)[C@H](O)[C@@H](O)[C@@H]1O` [Kanamycin], the “Sensitization fold with 5 μg/ml MD-124” value in data set [3] is 2 fold.
In the case of `CC(C)NC(=N)c1ccc(OCc2cccc(COc3ccc(C(=N)NC(C)C)cc3)c2F)cc1` [MD-110, 1,3-Bis{(4-isopropylamidino)-phenoxymethyl}-2-fluorobenzene dihydrochloride], the Sensitization entry in data set [1] (E. coli, rifampicin) is “No effect up to 25 μM”. Besides, the MIC in [1] (setting [15]) and in data set [6] was 25 µM each time. Moreover, the figures for the Sensitization fold result in data set [6] (compound at 6 μM) and in data set [7] were “No effect at 6 μM” and 16-fold at 4 μM, respectively. Besides, the cytotoxic concentration (CC50) at 24 h in data set [8] and in data set [9] was greater than 100 µM each time.
Turning to `COc1cc(C(=N)N)ccc1OCc1cc(COc2ccc(C(=N)N)cc2OC)cc(C(C)(C)C)c1` [MD-114, 1,3-Bis {[4-amidino-2-methoxy)-phenoxymethyl]}-5-(tert-butyl)benzene dihydrochloride], the Sensitization fold is 8-fold at 12.5 μM in data set [1] (E. coli, rifampicin, compound at 12.5 μM) and 8-fold at 12 μM in [6] (compound at 12 μM). Moreover, the results for the MIC in [1] (setting [15]) and in data set [6] were 100 µM and 25 µM, respectively. In data set [10], this molecule displayed a CC50 of 100 µM. In addition, in [9], half-maximal cytotoxicity (CC50 at 24 h) was put at 50 µM.
On to `Cc1cc(CSc2ccc(C3=NCCN3)cc2)cc(CSc2ccc(C3=NCCN3)cc2)c1` [MD-118, 1,3-Bis {(4-(2-imidazolino))-thiophenoxymethyl}-5-methylbenzene dihydrochloride], for which the Sensitization result in [1] (E. coli, rifampicin) is “No effect up to 25 μM”. Also, the MIC in data set [1] (setting [15]) was greater than 50 µM; in data set [6] it was greater than 25 µM. The Sensitization fold in data set [6] (compound at 3 μM) is on record as 4-fold at 3 μM; in [6] (compound at 6 μM) it was 16-fold at 6 μM,. Besides, the CC50 at 24 h was 25 µM in data set [8] and 12.5 µM in data set [9].
As to `Cc1cc(COc2ccc(C3=NCCN3)cc2)cc(COc2ccc(C3=NCCN3)cc2)c1` [MD-129, 1,3-Bis {(4-(2-imidazolino))-phenoxymethyl}-5-methylbenzene dihydrochloride], the CC50 at 24 h in [5] was 25 µM; in data set [8], 50 µM; in data set [9], 25 µM. The Sensitization fold in data set [1] (10 μM compound, rifampicin as the antibiotic (Table 6)) is 1 fold; in data set [6] (compound at 12 μM), 4-fold at 12 μM. For the same molecule, the Sensitization result in data set [1] (E. coli, rifampicin) is “No effect up to 25 μM”. Moreover, the MIC in [1] (setting [15]) and in data set [6] was greater than 50 µM throughout. In addition, the sensitization activity entry in [1] (rifampicin, compound at up to 10 μM) is listed as “no sensitization activity”.
In the case of `C[C@@H](O)[C@H]1C(=O)N2C(C(=O)O)=C(S[C@@H]3CN[C@H](C(=O)N(C)C)C3)[C@H](C)[C@H]12` [Meropenem, reference compound], the Sensitization fold in data set [1] (setting [13]) came out at 1 fold. Moreover, the “MIC of AB with MD-124” value in data set [1] (E. coli) is 0.063 µg/mL. Also, the MIC in data set [1] (setting [14]) amounted to 0.063 µg/mL; in data set [1] (setting [12]), 0.03 µg/mL; in [2] (antibiotic alone (Table 14)), 12.5 µg/mL (≈ 32.6 µM). For the same molecule, the “Sensitization fold with 5 μg/ml MD-124” value in data set [2] (setting [11]) turned out to be 2 fold.
Consider `CCOc1ccc2ccccc2c1C(=O)N[C@@H]1C(=O)N2[C@@H]1SC(C)(C)[C@@H]2C(=O)O` [Nafcillin, reference compound], for which the Sensitization fold in data set [1] (setting [13]) was greater than 4 fold. Besides, in data set [1] (E. coli), the “MIC of AB with MD-124” value was determined as 75 µg/mL. Moreover, the MIC in data set [1] (setting [14]) was greater than 300 µg/mL. Moreover, the “Sensitization fold with 5 μg/ml MD-124” value in data set [3] was determined as 2 fold.
Turning to `CN(C)[C@@H]1C(O)=C(C(N)=O)C(=O)[C@@]2(O)C(O)=C3C(=O)c4c(O)cccc4[C@@](C)(O)[C@H]3C[C@@H]12` [Tetracycline, reference compound], the Sensitization fold in data set [1] (setting [13]) was 2 fold. Besides, in [1] (E. coli), the “MIC of AB with MD-124” value came out at 0.6 µg/mL. For the same molecule, in data set [1] (setting [14]), the MIC was determined as 1.2 µg/mL. The “Sensitization fold with 5 μg/ml MD-124” value stood at 2 fold in [3] and 4 fold in data set [2].
With `COc1cc(Cc2cnc(N)nc2N)cc(OC)c1OC` [Trimethoprim, reference compound], the Sensitization fold in data set [1] (setting [13]) is recorded as 2 fold. Besides, the “MIC of AB with MD-124” value in data set [1] (E. coli) was 1.25 µg/mL. The MIC in data set [1] (setting [14]) came out at 2.5 µg/mL. Besides, the “Sensitization fold with 5 μg/ml MD-124” value in data set [3] is given as 2 fold.
